# Measured values reported in ChEMBL document CHEMBL3804756 (J Med Chem, 2016).
# Assays:
# Histamine H2 receptor [1] = target: T1, Histamine H2 receptor (Homo sapiens, UniProt P25021); test: Intrinsic activity at human histamine H2 receptor expressed in sf9 cell membrane co-expressing Gsalphas at 10 uM incubated for 90 mins by [35S]GTPgammaS binding assay relative to histamine; type: functional
# Histamine H3 receptor [2] = target: T2, Histamine H3 receptor (Homo sapiens, UniProt Q9Y5N1); test: Agonist activity at human histamine H3 receptor expressed in sf9 cell membrane co-expressing mammalian Galphai2 and Gbeta1gamma2 incubated for 90 mins by [35S]GTPgammaS binding assay; type: functional
# T2 sequence (Q9Y5N1 whole entry): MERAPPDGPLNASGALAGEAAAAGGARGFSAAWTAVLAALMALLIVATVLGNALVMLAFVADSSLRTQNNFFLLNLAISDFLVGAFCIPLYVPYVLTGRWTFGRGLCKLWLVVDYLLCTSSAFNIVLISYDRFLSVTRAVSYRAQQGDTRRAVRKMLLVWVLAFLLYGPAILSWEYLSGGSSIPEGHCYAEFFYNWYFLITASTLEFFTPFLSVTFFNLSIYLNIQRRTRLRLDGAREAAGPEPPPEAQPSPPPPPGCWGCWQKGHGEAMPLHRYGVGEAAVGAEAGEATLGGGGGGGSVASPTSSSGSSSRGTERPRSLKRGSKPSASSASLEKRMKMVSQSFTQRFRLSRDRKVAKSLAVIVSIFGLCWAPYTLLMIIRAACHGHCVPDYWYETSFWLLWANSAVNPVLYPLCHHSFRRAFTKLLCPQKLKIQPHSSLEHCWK
# Histamine H3 receptor [3] = target: T2, Histamine H3 receptor; test: Intrinsic activity at human histamine H3 receptor expressed in sf9 cell membrane co-expressing mammalian Galphai2 and Gbeta1gamma2 at 10 uM incubated for 90 mins by [35S]GTPgammaS binding assay relative to histamine; type: functional
# Histamine H1 receptor = Histamine H1 receptor (Homo sapiens, UniProt P35367); test: Displacement of [3H]mepyramine from human histamine H1 receptor expressed in sf9 cell membrane co-expressing RGS4 incubated for 60 mins by liquid scintillation counting method
# Chain of Histamine H1 receptor (P35367 whole entry): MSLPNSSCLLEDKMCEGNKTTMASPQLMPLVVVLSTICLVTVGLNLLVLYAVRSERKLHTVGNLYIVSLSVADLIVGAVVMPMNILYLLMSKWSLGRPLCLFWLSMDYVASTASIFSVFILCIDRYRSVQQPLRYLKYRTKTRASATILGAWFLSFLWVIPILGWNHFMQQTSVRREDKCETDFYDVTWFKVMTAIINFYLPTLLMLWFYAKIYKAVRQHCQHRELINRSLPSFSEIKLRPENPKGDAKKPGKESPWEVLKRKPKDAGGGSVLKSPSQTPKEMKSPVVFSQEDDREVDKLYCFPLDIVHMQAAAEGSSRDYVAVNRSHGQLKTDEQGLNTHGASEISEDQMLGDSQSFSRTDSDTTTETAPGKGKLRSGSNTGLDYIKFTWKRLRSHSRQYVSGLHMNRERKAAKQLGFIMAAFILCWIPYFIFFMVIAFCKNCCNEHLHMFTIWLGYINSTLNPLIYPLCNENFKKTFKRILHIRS
# Histamine H2 receptor [4] = target: T1, Histamine H2 receptor; test: Displacement of [3H]tiotidine from human histamine H2 receptor expressed in sf9 cell membrane co-expressing Gsalphas incubated for 60 mins by liquid scintillation counting method
# Histamine H3 receptor [5] = target: T2, Histamine H3 receptor; test: Displacement of [3H]N-alpha-methylhistamine from human histamine H3 receptor expressed in sf9 cell membrane co-expressing mammalian Galphai2 and Gbeta1gamma2 incubated for 60 mins by liquid scintillation counting method
# Histamine H4 receptor [6] = target: T3, Histamine H4 receptor (Homo sapiens, UniProt Q9H3N8); test: Agonist activity at human histamine H4 receptor expressed in sf9 cell membrane co-expressing mammalian Galphai2 and Gbeta1gamma2 incubated for 90 mins by [35S]GTPgammaS binding assay; type: functional
# T3 sequence (Q9H3N8 whole entry): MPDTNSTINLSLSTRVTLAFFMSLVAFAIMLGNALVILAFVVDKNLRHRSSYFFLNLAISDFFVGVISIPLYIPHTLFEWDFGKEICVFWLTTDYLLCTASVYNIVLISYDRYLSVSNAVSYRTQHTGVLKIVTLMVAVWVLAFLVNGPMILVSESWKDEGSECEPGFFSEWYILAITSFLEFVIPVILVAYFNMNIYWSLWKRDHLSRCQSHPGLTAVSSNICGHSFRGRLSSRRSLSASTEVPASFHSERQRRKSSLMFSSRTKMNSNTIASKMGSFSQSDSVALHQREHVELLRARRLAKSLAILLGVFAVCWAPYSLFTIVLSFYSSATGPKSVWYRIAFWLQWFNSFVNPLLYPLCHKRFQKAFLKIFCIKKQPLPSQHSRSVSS
# Histamine H4 receptor [7] = target: T3, Histamine H4 receptor; test: Displacement of [3H]UR-PI294 from human histamine H4 receptor expressed in sf9 cell membrane co-expressing mammalian Galphai2 and Gbeta1gamma2 incubated for 60 mins by liquid scintillation counting method
# Histamine H4 receptor [8] = target: T3, Histamine H4 receptor; test: Agonist activity at human SF-His6-tagged histamine H4 receptor expressed in HEK293 cells assessed as inhibition of forskolin-stimulated response incubated for 5 hrs by luciferase reporter gene assay; type: cell-based
# Histamine H4 receptor [9] = target: T4, Histamine H4 receptor (Mus musculus, UniProt Q91ZY2); test: Agonist activity at mouse SF-His6-tagged histamine H4 receptor expressed in HEK293 cells assessed as inhibition of forskolin-stimulated response incubated for 5 hrs by luciferase reporter gene assay; type: cell-based
# T4 sequence (Q91ZY2 whole entry): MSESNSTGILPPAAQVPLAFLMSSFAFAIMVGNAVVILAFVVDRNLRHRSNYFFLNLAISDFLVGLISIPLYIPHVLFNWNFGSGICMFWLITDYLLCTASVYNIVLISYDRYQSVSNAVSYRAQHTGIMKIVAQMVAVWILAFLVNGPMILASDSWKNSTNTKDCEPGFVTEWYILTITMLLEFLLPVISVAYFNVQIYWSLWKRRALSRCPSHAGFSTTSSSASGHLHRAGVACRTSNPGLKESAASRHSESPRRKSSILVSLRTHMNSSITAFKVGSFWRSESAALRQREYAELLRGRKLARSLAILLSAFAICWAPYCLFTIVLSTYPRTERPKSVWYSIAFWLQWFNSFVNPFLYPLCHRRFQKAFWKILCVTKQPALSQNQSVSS
# Histamine H2 receptor [10] = target: T1, Histamine H2 receptor; test: Antagonist activity at human histamine H2 receptor expressed in sf9 cell membrane co-expressing Gsalphas assessed as inhibition of histamine-induced [35S]GTPgammaS binding incubated for 90 mins; type: functional
# Histamine H3 receptor [11] = target: T2, Histamine H3 receptor; test: Antagonist activity at human histamine H3 receptor expressed in sf9 cell membrane co-expressing mammalian Galphai2 and Gbeta1gamma2 assessed as inhibition of histamine-induced [35S]GTPgammaS binding incubated for 90 mins; type: functional
# [12] = target: T5, Histamine H4 receptor (Mus musculus) (UniProt Q91ZY2); test: Intrinsic activity at mouse SF-His6-tagged histamine H4 receptor expressed in HEK293 cells assessed as inhibition of forskolin-stimulated response incubated for 5 hrs by luciferase reporter gene assay relative to histamine; type: cell-based
# T5 sequence (whole entry): T4 sequence (Q91ZY2 whole entry)
# T1 sequence (P25021 whole entry): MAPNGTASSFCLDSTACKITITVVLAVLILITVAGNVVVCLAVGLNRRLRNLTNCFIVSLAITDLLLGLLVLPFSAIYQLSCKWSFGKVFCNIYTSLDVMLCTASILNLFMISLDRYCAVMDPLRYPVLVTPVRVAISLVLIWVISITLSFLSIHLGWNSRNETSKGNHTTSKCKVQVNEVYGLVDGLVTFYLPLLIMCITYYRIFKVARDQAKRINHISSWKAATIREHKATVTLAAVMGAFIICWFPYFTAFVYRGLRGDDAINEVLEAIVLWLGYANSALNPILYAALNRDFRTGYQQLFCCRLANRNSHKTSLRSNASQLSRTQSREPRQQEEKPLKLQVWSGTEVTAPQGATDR
smiles,measurement,setting,value
N#C/N=C(/NCCCCc1c[nH]cn1)NCCSc1ccccc1,Intrinsic activity,Histamine H2 receptor [1],0
same,EC50,Histamine H3 receptor [2],720 nM
same,Intrinsic activity,Histamine H3 receptor [3],-0.52
CN/C(=N\C#N)NC[C@H]1CC[C@H](c2c[nH]cn2)C1 [listing 1 of 2 here],Ki,Histamine H1 receptor; sf9,> 10000 nM
same,Ki,Histamine H2 receptor [4],> 10000 nM
same,EC50,Histamine H3 receptor [2],994 nM
same,Ki,Histamine H3 receptor [5],958 nM
same,EC50,Histamine H4 receptor [6],100 nM
same,Ki,Histamine H4 receptor [7],98 nM
same,EC50,Histamine H4 receptor [8],63 nM
same,EC50,Histamine H4 receptor [9],538 nM
N#C/N=C(/NCCSc1ccccc1)NC[C@@H]1CC[C@@H](c2c[nH]cn2)C1,Ki,Histamine H1 receptor,7910 nM
same,Kb,Histamine H2 receptor [10],> 10000 nM
same,Intrinsic activity,Histamine H2 receptor [1],0
same,Kb,Histamine H3 receptor [11],143 nM
same,Ki,Histamine H2 receptor [4],9820 nM
same,Intrinsic activity,Histamine H3 receptor [3],-0.21
same,Ki,Histamine H3 receptor [5],590 nM
same,Ki,Histamine H4 receptor [7],1050 nM
same,EC50,Histamine H4 receptor [8],500 nM
same,EC50,Histamine H4 receptor [9],589 nM
same,Intrinsic activity,[12],0.29
N#C/N=C(/NCCSc1ccccc1)NC[C@H]1CC[C@H](c2c[nH]cn2)C1 [listing 1 of 2 here],Ki,Histamine H1 receptor,6520 nM
same,Ki,Histamine H2 receptor [4],10300 nM
same,Ki,Histamine H3 receptor [5],2130 nM
same,EC50,Histamine H4 receptor [6],11 nM
same,Ki,Histamine H4 receptor [7],22 nM
same,EC50,Histamine H4 receptor [8],25 nM
same,EC50,Histamine H4 receptor [9],166 nM
N#C/N=C(/NCCSc1ccccc1)N[C@H]1CC[C@@H](c2c[nH]cn2)CC1,Kb,Histamine H3 receptor [11],1900 nM
same,EC50,Histamine H4 receptor [6],110 nM
N#C/N=C(/NCCSc1ccccc1)NC[C@H]1CC[C@@H](c2c[nH]cn2)C1,Ki,Histamine H1 receptor,6780 nM
same,Kb,Histamine H2 receptor [10],> 10000 nM
same,Intrinsic activity,Histamine H2 receptor [1],0
same,Kb,Histamine H3 receptor [11],528 nM
same,Ki,Histamine H2 receptor [4],7360 nM
same,Intrinsic activity,Histamine H3 receptor [3],-0.34
same,Ki,Histamine H3 receptor [5],745 nM
same,EC50,Histamine H4 receptor [6],549 nM
same,Ki,Histamine H4 receptor [7],290 nM
CN/C(=N\C#N)NC[C@@H]1CC[C@@H](c2c[nH]cn2)C1,Ki,Histamine H1 receptor,> 10000 nM
same,Kb,Histamine H2 receptor [10],> 10000 nM
same,Intrinsic activity,Histamine H2 receptor [1],0
same,Ki,Histamine H2 receptor [4],> 10000 nM
same,EC50,Histamine H3 receptor [2],9200 nM
same,Intrinsic activity,Histamine H3 receptor [3],0.29
same,Ki,Histamine H3 receptor [5],5680 nM
same,EC50,Histamine H4 receptor [6],1100 nM
same,Ki,Histamine H4 receptor [7],870 nM
same,EC50,Histamine H4 receptor [9],3630 nM
same,Intrinsic activity,[12],0.96
N#C/N=C(/NCCSc1ccccc1)NC[C@@H]1CC[C@H](c2c[nH]cn2)C1 [listing 1 of 2 here],Ki,Histamine H1 receptor,3050 nM
same,Ki,Histamine H2 receptor [4],7250 nM
same,Ki,Histamine H3 receptor [5],870 nM
same,EC50,Histamine H4 receptor [6],293 nM
same,Ki,Histamine H4 receptor [7],180 nM
CN/C(=N\C#N)NC[C@H]1CC[C@@H](c2c[nH]cn2)C1,Ki,Histamine H1 receptor,> 10000 nM
same,Kb,Histamine H2 receptor [10],> 10000 nM
same,Intrinsic activity,Histamine H2 receptor [1],0
same,Kb,Histamine H3 receptor [11],2810 nM
same,Ki,Histamine H2 receptor [4],> 10000 nM
same,Intrinsic activity,Histamine H3 receptor [3],-0.14
same,Ki,Histamine H3 receptor [5],9500 nM
same,EC50,Histamine H4 receptor [6],2680 nM
same,Ki,Histamine H4 receptor [7],3500 nM
CN/C(=N\C#N)NC[C@@H]1CC[C@H](c2c[nH]cn2)C1 [listing 1 of 2 here],Ki,Histamine H1 receptor; sf9,> 10000 nM
same,Ki,Histamine H2 receptor [4],> 10000 nM
same,EC50,Histamine H3 receptor [2],212 nM
same,Ki,Histamine H3 receptor [5],480 nM
same,EC50,Histamine H4 receptor [6],119 nM
same,Ki,Histamine H4 receptor [7],120 nM
CCC(=O)/N=C(\N)NCCCc1c[nH]cn1,Intrinsic activity,Histamine H2 receptor [1],0.8
same,Intrinsic activity,Histamine H3 receptor [3],0.4
CN/C(=N\C#N)NC[C@@H]1CC[C@H](c2c[nH]cn2)C1 [listing 2 of 2 here],Kb,Histamine H2 receptor [10],> 10000 nM
same,Intrinsic activity,Histamine H2 receptor [1],0
same,Intrinsic activity,Histamine H3 receptor [3],0.61
CN/C(=N\C#N)NC[C@H]1CC[C@H](c2c[nH]cn2)C1 [listing 2 of 2 here],Kb,Histamine H2 receptor [10],> 10000 nM
same,Intrinsic activity,Histamine H2 receptor [1],0
same,Intrinsic activity,Histamine H3 receptor [3],0.59
same,Intrinsic activity,[12],0.96
CN1CCN(C(=O)c2cc3cc(Cl)ccc3[nH]2)CC1,Intrinsic activity,Histamine H3 receptor [3],-0.56
N#C/N=C(/NCCSc1ccccc1)NC[C@@H]1CC[C@H](c2c[nH]cn2)C1 [listing 2 of 2 here],Kb,Histamine H2 receptor [10],> 10000 nM
same,Intrinsic activity,Histamine H2 receptor [1],0
same,Kb,Histamine H3 receptor [11],718 nM
same,Intrinsic activity,Histamine H3 receptor [3],-0.21
N#C/N=C(/NCCSc1ccccc1)NC[C@H]1CC[C@H](c2c[nH]cn2)C1 [listing 2 of 2 here],Kb,Histamine H2 receptor [10],> 10000 nM
same,Intrinsic activity,Histamine H2 receptor [1],0
same,Kb,Histamine H3 receptor [11],1150 nM
same,Intrinsic activity,Histamine H3 receptor [3],0
same,Intrinsic activity,[12],0.67
N#C/N=C(/NCCSc1ccccc1)N[C@H]1CC[C@H](c2c[nH]cn2)CC1,Kb,Histamine H3 receptor [11],180 nM
S=C(NC1CCCCC1)N1CCC(c2cnc[nH]2)CC1,Intrinsic activity,Histamine H3 receptor [3],-0.59
